Assay results taken from paper PMC11930985 (Nature Communications, 2025).
≈ marks a conversion by molar mass, not a printed value. Where “and” joins values, the source holds several entries; their conditions need not be identical. Equal values may be shown once. Read-outs that look alike come from different tables or passages of the source.

Columns and labels:
[1] = tested on: Yes; set-up: method as in Investigator's Brochure (IB) version 5.0; details: ref Investigator's Brochure (IB) version 5.0; cited from earlier work
[2] = tested on: healthy male subjects; set-up: method as in Protocol BGBC001; details: ref Protocol BGBC001; cited from earlier work
[3] = tested on: MD V 4-11 xenograft; set-up: method as in Investigator's Brochure (IB) version 5.0; details: ref Investigator's Brochure (IB) version 5.0, cited from earlier work
[4] = biological target: Ret; set-up: method as in Investigator's Brochure (IB) version 5.0; details: ref Investigator's Brochure (IB) version 5.0; cited from earlier work
[5] = tested on: bone marrow cells from patients with primary AML; set-up: method as in Ben-Batalla et al., 2013; details: ref Ben-Batalla et al., 2013; cited from earlier work
[6] = biological target: Flt1; set-up: method as in Investigator's Brochure (IB) version 5.0; details: ref Investigator's Brochure (IB) version 5.0; cited from earlier work
[7] = tested on: Ret; set-up: method as in Investigator's Brochure (IB) version 5.0; details: ref Investigator's Brochure (IB) version 5.0; cited from earlier work; remark: listed apart in the source
[8] = tested on: Flt1; set-up: method as in Investigator's Brochure (IB) version 5.0; details: ref Investigator's Brochure (IB) version 5.0; cited from earlier work; remark: listed apart in the source
[9] = tested on: AML cell lines; set-up: method as in Investigator's Brochure (IB) version 5.0; details: ref Investigator's Brochure (IB) version 5.0, cited from earlier work
[10] = tested on: pS6 S235/S236; experiment: CyTOF maximal inhibition in Undefined/Immature Myeloid cells: pS6; assay type: in vivo; details: Homo sapiens, N = 12 patients, read-out: EC50 (± standard error), pS6 S235/S236 inhibition
Source text: (§1) Pharmacodynamic endpoints included the measurement of inhibition of pAXL, pERK, pAKT, pS6 and pSTAT1/3/5 in blast cells (defined as cells with abnormal surface marker expression as compared to healthy donor peripheral blood mononuclear cells and undefined/immature myeloid cells (defined as cells carrying myeloid markers but lacking distinguishing terminal differentiation markers). Mass cytometry time of flight (CyTOF) was used for the determination of the pharmacodynamic markers using a previously validated and tested panel of mass-tagged antibodies[39],[40]. The antibodies in the panel are listed in Supplementary Table 5. Briefly, fixed leukocytes from peripheral blood were barcoded using a 20-plex metal barcoding kit (Standard Biotools, Cell-ID 201060) according to manufacturer’s protocol, allowing all the samples from a single individual to be stained and analysed in parallel. All analysis runs included barcoded peripheral blood mononuclear cells (PBMCs) from at least one healthy donor and an identical barcoded reference sample (mix of PBMCs from six healthy donors). […]
(§2) For each population, marker, and sample, the 95th percentile of the non-transformed expression values was calculated. […]

[11] = tested on: Ret; set-up: method as in Investigator's Brochure (IB) version 5.0; details: ref Investigator's Brochure (IB) version 5.0; cited from earlier work; remark: listed apart in the source
[12] = tested on: hERG channel; set-up: method as in Investigator's Brochure (IB) version 5.0; details: ref Investigator's Brochure (IB) version 5.0; cited from earlier work
[13] = tested on: Flt1; set-up: method as in Investigator's Brochure (IB) version 5.0; details: ref Investigator's Brochure (IB) version 5.0; cited from earlier work; remark: listed apart in the source
[14] = biological target: Yes; set-up: method as in Investigator's Brochure (IB) version 5.0; details: ref Investigator's Brochure (IB) version 5.0; cited from earlier work; remark: listed apart in the source
[15] = tested on: Hoxa9/Meis1 leukemia; set-up: method as in Ben-Batalla et al., 2013; details: ref Ben-Batalla et al., 2013; cited from earlier work
[16] = tested on: bacterial mutation; details: ref Investigator's Brochure (IB) version 5.0; cited from earlier work
[17] = tested on: pERK1/2 T202/Y204; experiment: CyTOF maximal inhibition in Undefined/Immature Myeloid cells: pERK1/2; assay type: in vivo, human
Source text: as §1, §2

Structure (SMILES): Nc1nc(Nc2ccc3c(c2)CC[C@@H](N2CCCC2)CC3)nn1-c1cc2c(nn1)-c1ccccc1CCC2 [Bemcentinib]
- IC50 [1]: 43 nM
- Maximum QTcF recorded (severity) [2]: Grade I
- Reduction in tumor burden ([3]; oral treatment): dose-dependent
- Axl and ERK phosphorylation levels [3]: dose-dependent reduction
- Kd [4]: 73 nM
- Patients whose bone marrow cells were sensitive to BGB324 [5]: 7 out of 11
- Sensitization of primary patient AML cells to Ara-C [5]: sensitizes
- Kd [6]: 400 nM
- IC50 [7]: 38 nM
- IC50 [8]: 40 nM
- Effect when administered with cytarabine (Ara-C) ([9]; preliminary studies): at least additive
- Effect of exposure in AML cell lines ([9]; with G1 arrest, reduced phosphorylated axl and ERK): exposure-induced differentiation
- EC50 [10]: 0.1187 ± 0.0011 µg/mL (≈ 0.234 µM)
- IC50 [11]: > 316 nM
- IC50 [12]: 530 nM
- IC50 [13]: > 1000 nM
- Kd [14]: 810 nM
- Survival [15]: prolong
- Ames bacterial mutation assay result [16]: negative
- EC50 ([17]; Homo sapiens, Undefined/Immature Myeloid cells, N = 12 patients, read-out: EC50 (± standard error), pERK1/2 T202/Y204 inhibition): 0.0873 ± 0.0017 µg/mL (≈ 0.172 µM)
- Maximum inhibition (percent) pERK1/2 (T202/Y204) ([17]; Supplementary Figure 1c, individual patients): 87.1% and 71.6% and 100% and 8.8% and 98.1% and 30.4% and 66.9% and 0% and 5.7% and 94.5% and 39.2% and 69.3%
